Laboratory results: the supplement of paper PMC10307832

What was measured:
Test in all cases: relative viability (nuclei count vs DMSO), 5 days (fraction); higher = more cells survive
[1] = compound: CCN(CCO)CCCC(C)Nc1ccnc2cc(Cl)ccc12 [Hydroxychloroquine] + CC(C)C[C@H](NC(=O)[C@H](Cc1ccccc1)NC(=O)c1cnccn1)B(O)O [Bortezomib] (partner 0.002 µM)
In short: (§1)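 Lung cancer cell lines were pin-tool dosed in 1536-well plates on the day after seeding, with either a lone drug or a fixed anchor-drug dose plus five library-drug doses (not always all listed) in √10 steps. Nuclei were counted on 4× images after 5 days. Relative viability is the ratio of treated-well to vehicle-well nuclei counts, with each value a median of duplicate plates.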

[2] = compound: CCN(CCO)CCCC(C)Nc1ccnc2cc(Cl)ccc12 [Hydroxychloroquine] + CS(=O)(=O)CCNCc1ccc(-c2ccc3ncnc(Nc4ccc(OCc5cccc(F)c5)c(Cl)c4)c3c2)o1 [Lapatinib] (partner 2 µM)
In short: as §1

[3] = compound: CCN(CCO)CCCC(C)Nc1ccnc2cc(Cl)ccc12 [Hydroxychloroquine] + NC(=O)Nc1cc(-c2cccc(F)c2)sc1C(=O)N[C@H]1CCCNC1 [AZD7762] (partner 0.2 µM)
In short: as §1

[4] = compound: CCN(CCO)CCCC(C)Nc1ccnc2cc(Cl)ccc12 [Hydroxychloroquine] + Nc1ncn([C@H]2C[C@H](O)[C@@H](CO)O2)c(=O)n1 [Decitabine] (partner 2 µM)
In short: as §1

| Cell Line | relative viability ([1]; first compound 0.5 µM) | relative viability ([1]; first compound 1.581 µM) | relative viability ([1]; first compound 5 µM) | relative viability ([1]; first compound 15.81 µM) | relative viability ([1]; first compound 50 µM) | relative viability ([2]; first compound 0.5 µM) | relative viability ([2]; first compound 5 µM) | relative viability ([2]; first compound 15.81 µM) | relative viability ([2]; first compound 50 µM) | relative viability ([3]; first compound 0.5 µM) | relative viability ([3]; first compound 1.581 µM) | relative viability ([3]; first compound 5 µM) | relative viability ([3]; first compound 15.81 µM) | relative viability ([3]; first compound 50 µM) | relative viability ([2]; first compound 1.581 µM) | relative viability ([4]; first compound 0.5 µM) | relative viability ([4]; first compound 1.581 µM) | relative viability ([4]; first compound 5 µM) | relative viability ([4]; first compound 15.81 µM) | relative viability ([4]; first compound 50 µM) |
| --- | --- | --- | --- | --- | --- | --- | --- | --- | --- | --- | --- | --- | --- | --- | --- | --- | --- | --- | --- | --- |
| NCI-H1703 | 0.322 | 0.273 | 0.284 | 0.291 | 0.316 | 0.959 | 1.05 | 1.29 | 0.763 | 0.196 | 0.159 | 0.135 | 0.114 | 0.137 |  |  |  |  |  |  |
| NCI-H1793 |  |  |  |  |  | 0.57 | 0.649 | 0.603 | 0.691 | 0.46 | 0.615 | 0.452 | 0.402 | 0.404 | 0.556 | 0.542 | 0.466 | 0.42 | 0.412 | 0.259 |
| NCI-H1944 |  |  |  |  |  | 0.762 | 0.797 | 0.867 | 0.967 | 0.828 | 0.75 | 0.513 | 0.432 | 0.455 | 0.755 | 0.4 | 0.44 | 0.423 | 0.483 | 0.429 |
| NCI-H2009 | 1.02 | 1.04 | 0.956 | 0.963 | 1.07 | 0.909 | 0.874 | 0.898 | 0.893 |  |  |  |  |  | 0.826 | 0.353 | 0.397 | 0.403 | 0.353 | 0.377 |
| NCI-H2023 | 1.06 | 0.942 | 1.01 | 0.964 | 1.03 | 0.793 | 0.691 | 0.905 | 0.994 |  |  |  |  |  | 0.652 | 0.231 | 0.209 | 0.214 | 0.227 | 0.211 |
| NCI-H2170 |  |  |  |  |  | 0.261 | 0.275 | 0.276 | 0.267 | 0.925 | 0.918 | 0.867 | 0.882 | 1.09 | 0.251 | 0.438 | 0.449 | 0.396 | 0.438 | 0.457 |
| NCI-H2228 | 1 | 1.18 | 1 | 1.05 | 1.29 | 1.05 | 0.972 | 0.705 | 1.18 |  |  |  |  |  | 0.999 |  |  |  |  |  |
| NCI-H2342 |  |  |  |  |  |  |  |  |  | 0.458 | 0.47 | 0.522 | 0.463 | 0.449 |  | 0.774 | 0.765 | 0.782 | 0.756 | 0.769 |
| SK-LU-1 | 1.27 | 1.04 | 1.29 | 1.18 | 1.37 | 0.932 | 0.896 | 0.871 | 0.909 |  |  |  |  |  | 0.845 | 0.605 | 0.631 | 0.664 | 0.557 | 0.762 |
| SK-MES-1 |  |  |  |  |  | 0.515 | 0.487 | 0.472 | 0.449 |  |  |  |  |  | 0.418 | 0.389 | 0.304 | 0.419 | 0.361 | 0.366 |
| SW 1573 | 0.966 | 1.17 | 0.931 | 0.947 | 1.1 | 0.98 | 1.15 | 1.07 | 0.997 |  |  |  |  |  | 1.01 | 0.444 | 0.296 | 0.409 | 0.554 | 0.428 |
| UMC-11 | 0.626 | 0.822 | 0.863 | 0.657 | 1.15 | 0.829 | 0.982 | 1.1 | 1.13 |  |  |  |  |  | 0.735 | 0.541 | 0.485 | 0.633 | 0.663 | 0.619 |
